Measured values: patent US4614732A, “N^6 -acenaphthyl adenosines and analogs thereof” (Warner-Lambert Company, priority 1985, dated 1986)

How the values were obtained:
adenosine A1 receptor = target: T1, adenosine A1 receptor (Rattus norvegicus, UniProt P25099); experiment: Adenosine Receptor Binding--A1 Receptor Affinity (RBA1), [3H]-CHA displacement, rat whole brain membranes; set-up: species or system rat (male Long Evans); conditions: 1.0 nM [3H]-CHA, 25° C., one hour, read-out: IC50 for adenosine A1 receptor affinity (RBA-1)
T1 construct: Whole brain minus cerebellum and brainstem from male Long Evans rats; from tissue; host or cells: rat whole brain minus cerebellum and brainstem, membranes
T1 sequence (P25099 1-326): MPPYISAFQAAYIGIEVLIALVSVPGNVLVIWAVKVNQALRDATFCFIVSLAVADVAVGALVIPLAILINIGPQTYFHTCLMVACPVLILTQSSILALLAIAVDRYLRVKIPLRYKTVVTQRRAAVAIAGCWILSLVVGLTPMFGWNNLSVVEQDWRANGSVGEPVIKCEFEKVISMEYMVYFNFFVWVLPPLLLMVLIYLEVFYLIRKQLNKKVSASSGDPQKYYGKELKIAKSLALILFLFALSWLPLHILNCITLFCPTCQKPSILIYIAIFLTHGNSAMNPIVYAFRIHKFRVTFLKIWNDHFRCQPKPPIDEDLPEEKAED
Procedure: Whole brain minus cerebellum and brainstem from male Long Evans rats (150-200 g) was homogenized in 30 volumes of ice-cold 0.05M Tris-HCl buffer pH 7.7 using a Brinkman Polytron PT-10, (setting number 6 for 20 seconds) and centrifuged for ten minutes at 20,000×g (Sorvall RC-2), 4° C. The supernatant was discarded, and the pellet was resuspended and centrifuged as before. The pellet was resuspended in 20 ml Tris-HCl buffer containing two International Units/ml of adenosine deaminase (Sigma type III from calf intestinal mucosa), incubated at 37° C. for 30 minutes, then subsequently at 0° C. for ten minutes. The homogenate was again centrifuged, and the final pellet was resuspended in ice-cold 0.05M Tris-HCl buffer pH 7.7 to a concentration of 20 mg/ml original wet tissue weight and used immediately.
Tissue homogenate (10 mg/ml) was incubated in 0.05M Tris-HCl buffer pH 7.7 containing 1.0 nM [^3 H]-N^6 -cyclohexyladenosine ([^3 H]-CHA) with or without test agents in triplicate for one hour at 25° C. Incubation volume was 2 ml. Unbound [^3 H]-CHA was separated by rapid filtration under reduced pressure through Whatman glass fiber (GF/B) filters. The filters were rinsed three times with 5 ml of ice cold 0.05M Tris-HCl buffer pH 7.7. The radio-labeled ligand retained on the filter was measured by liquid scintillation spectrophotometry after shaking the filters for one hour or longer on a mechanical shaker in 10 ml of Beckman Ready-Solv HP scintillation cocktail.
Nonspecific binding was defined as the binding which occurred in the presence of 1 mM theophylline. The concentration of test agent which inhibited 50% of the specific binding (IC50) was determined by nonlinear computer curve fit. The Scatchard plot was calculated by linear regression of the line obtained by plotting the amount of radioligand bound (pmoles/gram of tissue) versus [formula] […] The Hill coefficient was calculated by linear regression of the line obtained by plotting the log of the bound radioligand vs the log of the [formula] The maximal number of binding sites (Bmax) was calculated from the Scatchard plot.

rat heart = experiment: Coronary Blood Flow Evaluation: isolated perfused rat heart; conditions: for activation at 1 µM / inhibition at 1 µM: 1 × 10^-6 Molar; for activation at 0.1 µM / inhibition at 0.1 µM: 1 × 10^-7 Molar; for activation at 0.01 µM / inhibition at 0.01 µM: 1 × 10^-8 Molar; for activation at 3 µM / inhibition at 3 µM: 3 × 10^-6 Molar; for activation at 0.3 µM / inhibition at 0.3 µM: 3 × 10^-7 Molar; for activation at 0.03 µM / inhibition at 0.03 µM: 3 × 10^-8 Molar
Procedure: The usefulness of the compounds of the present invention as agents effective to treat angina, is shown by their effectiveness in standard pharmacological test procedures, for example, in causing significant increase in coronary blood flow in rats. This test procedure is described in the following paragraphs.
Male rats (400-600 gms) are pretreated with Na heparin 2000 units and anesthetized with Na pentobarbital (50 mg/kg) administered intraperitoneally. Once anesthetized, the rat heart is rapidly excised, the ascending aorta fitted to the aortic perfusion cannula, and secured with a ligature. The coronary arteries were perfused initially at a rate of about 15 ml/min for two to three minutes, after which they are perfused at constant pressure of 70 mm Hg and temperature of 37° C. The electrocardiogram (ECG) is recorded using two platinum electrodes positioned at the base and apex of the left venticle. A second heart is excised, cannulated, and perfused by the same method outlined above. Both hearts are tested in parallel. The standard physiological salt solution (PSS) is a modified Krebs-Hanseleit bicarbonate buffer of the following composition in mM concentration: NaCl, 127; NaHCO3, 25; dextrose, 5.5; Na Pyruvate, 2.0; KCl, 4.7; MgSO4, 1.1; KH2 PO4, 1.2; CaCl2.2H2 O, 2.5; CaNa2 EDTA, 0.05.
A 30-minute stabilization period is observed before starting the test protocol.
The microprocessor control system is a servo mechanism which permits coronary perfusion pressure (CPP) and drug concentration to be maintained constant independent of changes in coronary flow. The level at which CPP and drug concentration are maintained can be changed by commands communicated through the microprocessor keyboard. Dose-response curves are carried out by perfusing concentrated drug solution (DC) at rates proportional to total coronary flow (CFT). Drug concentrations are increased by proportionate increases in the rate of DC infusion over CFT via the microprocessor keyboard. The proportional flow rates for DC:CFT is about 0.0002:1 at the low end and 0.02:1 at the high end of the dose-response curve. Dose-response curves encompassing at least two log doses are carried out by preparing two DCs with a concentration difference of 1:100. Following the first dose range of two log doses, the DC are switched, proportional pumping rate adjusted, and the dose-responsecurve continued for another two log doses. The standard dose-response curve is carried out in one-half log dose increments starting at a subthreshold dose and ending at a dose which produces near maximal response in activity. Standard reference compounds are tested over the range of 10^-9 to 10^-6 M.
Measurements are for heart rate (HR) and coronary flow (CF). Units are: HR, beats/minute (bpm) and CF, milliliters/minute (ml/min). HR is calculated from the ECG strip chart recording and CF is calculated by recording analog outputs from pumps 1 and 2. Outputs from pump #1=CFT and the output from pump #2=CF for heart B (CFB). CF for heart A (CFA) is calculated (CFT -CFB =CFA).
Using the above techniques, the effects of the compound of Examples 1, 2 and 3 are as follows indicating the compound of Example 3 is preferred to increase coronary blood flow.

adenosine A2 receptor = target: T2, adenosine A2 receptor (Rattus norvegicus, UniProt P30543); experiment: Adenosine Receptor Binding--A2 Receptor Affinity (RBA2), [3H]NECA displacement, rat striatal membranes; set-up: species or system rat (Sprague-Dawley; Long-Evans); conditions: 4 nM [3H]NECA, 50 nM N6-cyclopentyladenosine, 25° C., 60 min, read-out: IC50 for adenosine A2 receptor affinity (RBA-2)
T2 construct: Brains were thawed and then kept on ice while the striata were dissected out; tissue Pel-Freez (Rogers, Ark.); host or cells: rat striatum, membranes
T2 sequence (P30543 whole entry): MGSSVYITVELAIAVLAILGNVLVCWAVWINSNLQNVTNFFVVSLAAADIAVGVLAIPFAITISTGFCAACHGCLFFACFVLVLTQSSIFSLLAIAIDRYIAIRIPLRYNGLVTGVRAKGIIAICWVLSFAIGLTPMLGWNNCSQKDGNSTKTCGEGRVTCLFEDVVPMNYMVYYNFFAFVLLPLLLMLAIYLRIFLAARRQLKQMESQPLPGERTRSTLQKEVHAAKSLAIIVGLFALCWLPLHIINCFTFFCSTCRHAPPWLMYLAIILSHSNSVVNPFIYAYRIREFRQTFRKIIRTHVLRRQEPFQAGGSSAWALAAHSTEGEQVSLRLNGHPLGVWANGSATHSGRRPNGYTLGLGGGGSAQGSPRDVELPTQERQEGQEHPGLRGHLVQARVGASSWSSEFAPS
Procedure: Brains from 200-500 g mixed sex Sprague-Dawley rats were purchased from Pel-Freez (Rogers, Ark.). Fresh brains from male Long-Evans hooded rats (Blue Spruce Farms, Altamont, NY) gave essentially identical results. Brains were thawed and then kept on ice while the striata were dissected out. Striata were disrupted in 10 vol of ice-cold 50 mM Tris.HCl (pH 7.7 at 25° C., pH 8.26 at 5° C.) (Tris) for 30 seconds in a Polytron PT-10 (Brinkmann) at setting 5. The suspension was centrifuged at 50,000×g for ten minutes, the supernatant discarded, the pellet resuspended in 10 vol ice-cold Tris as above, recentrifuged, resuspended at 1 g/5 ml, and stored in plastic vials at -70° C. (stable for at least six months). When needed, tissue was thawed at room temperature, disrupted in a Polytron, and kept on ice until used.
All incubations were for 60 minutes at 25° C. in 12×75 mm glass tubes containing 1 ml Tris with 5 mg original tissue weight of rat weight of rat striatal membranes, 4 nM [^3 H]-N-ethyl adenosine-5'-carboxamide ([^3 H]NECA), 50 nM N^6 -cyclopentyladenosine (to eliminate A1 receptor binding), 10 mM MgCl2, 0.1 units/ml of adenosine deaminase and 1% dimethylsulfoxide. N^6 -Cyclopentyladenosine was dissolved at 10 mM in 0.02N HCl and diluted in Tris. […]
Incubations were terminated by filtration through 2.4 cm GF/B filters under reduced pressure. […] Filters were put in scintillation vials, 8 ml of Formula 947 scintillation fluid added, and the vials left overnight, shaken, and counted in a liquid scintillation counter at 40% efficiency.
Nonspecific binding was defined as binding in the presence of 100 μM N^6 -cyclopentyladenosine, and specific binding was defined as total binding minus nonspecific binding. The IC50 was calculated by weighted nonlinear least squares curve-fitting to the mass-action equation. […]
Weighting factors were calculated under the assumption that the standard deviation was proportional to the predicted value of Y. Nonspecific binding was treated as a very large (inifinite) concentration of drug in the computer analysis.

[1] = read-out: coronary flow (CF), % increase
[2] = read-out: heart rate (HR), % decrease

Compound	IC50 (adenosine A1 receptor) [nM]	activation at 1 µM (rat heart; [1]) [%]	inhibition at 1 µM (rat heart; [2]) [%]	activation at 0.1 µM (rat heart; [1]) [%]	inhibition at 0.1 µM (rat heart; [2]) [%]	activation at 0.01 µM (rat heart; [1]) [%]	inhibition at 0.01 µM (rat heart; [2]) [%]	activation at 3 µM (rat heart; [1]) [%]	inhibition at 3 µM (rat heart; [2]) [%]	activation at 0.3 µM (rat heart; [1]) [%]	inhibition at 0.3 µM (rat heart; [2]) [%]	activation at 0.03 µM (rat heart; [1]) [%]	inhibition at 0.03 µM (rat heart; [2]) [%]	IC50 (adenosine A2 receptor) [nM]	activation at 0.001 µM (rat heart; 1 × 10^-9 Molar, read-out: coronary flow (CF), % increase) [%]	inhibition at 0.001 µM (rat heart; 1 × 10^-9 Molar, read-out: heart rate (HR), % decrease) [%]	activation at 0.003 µM (rat heart; 3 × 10^-9 Molar, read-out: coronary flow (CF), % increase) [%]	inhibition at 0.003 µM (rat heart; 3 × 10^-9 Molar, read-out: heart rate (HR), % decrease) [%]
OC[C@H]1O[C@@H](n2cnc3c(NCC4Cc5cccc6cccc4c56)ncnc32)[C@H](O)[C@@H]1O (stereo partly drawn) [Example 3, N^6-[(1,2-Dihydro-1-acenaphthylenyl)methyl]adenosine]	6	62	65	58	36	41	2	67	68	67	44	49	8	24				
OC[C@H]1O[C@@H](n2cnc3c(NC4Cc5cccc6cccc4c56)ncnc32)[C@H](O)[C@@H]1O (stereo partly drawn) [Example 1, N^6 -Acenaphthyladenosine]	640	44	5	27	2	0	1	49	8	40	2	7	0	950				
OC[C@H]1O[C@@H](n2cnc3c(NCC4=Cc5cccc6cccc4c56)ncnc32)[C@H](O)[C@@H]1O [Example 2, N^6-(1-acenaphthylenylmethyl)adenosine]	92	62	30			37	1			60	25	48	4	63	2	-1	7	-1
